# Data as given in paper PMC9428768 (RSC Chemical Biology, 2022).
# How the values were obtained:
# HeLa cells = assay: MTT assay; assay type: cell-based; conditions: Homo sapiens, 48 h, read-out: Cytotoxicity (HeLa cells)
# PBD = conditions: cited from earlier work
compound,measurement,setting,value
CC[C@@H]1C(=O)N(C)c2cnc(Nc3ccc(C(=O)NC4CCN(C)CC4)cc3OC)nc2N1C1CCCC1 [BI2536],IC50,HeLa cells,0.032 ± 0.0016 µM
PLHSpT [Ligand 1],less PBD-binding affinity than peptide 2,PBD,approximately 1000 fold
